Like-named read-outs stand apart in the source and are kept apart here.
Experiments:
[1] = biological target: T1, Hsp90 in C. albicans (SC5314) lysate (Candida albicans, UniProt P46598); test: biochemical; assay type: binding; conditions: for Ratio re. GdA: EC50 relative to GdA; for FP signal: raw
T1 construct: endogenous in cells; host or cells: C. albicans SC5314 whole-cell lysate

Hsp90 in HEPG2 lysate = conditions: for FP signal: raw
[2] = SC5314 lysate, 0.457 nM compound
[3] = SC5314 lysate, 1.372 nM compound
[4] = SC5314 lysate, 4.115 nM compound
[5] = SC5314 lysate, 12.346 nM compound
[6] = SC5314 lysate, 37.037 nM compound
[7] = SC5314 lysate, 111.111 nM compound
[8] = SC5314 lysate, 333.333 nM compound
[9] = SC5314 lysate, 1000 nM compound
[10] = SC5314 lysate, 3000 nM compound
[11] = ratio of GdA-normalized EC50s, human over fungal lysate
[12] = ratio of GdA-relative EC50 ratios, HepG2 over SC5314
[13] = EC50 / EC50 of GdA in HepG2 lysate
[14] = EC50 relative to GdA, HEPG2 lysate
[15] = HEPG2 lysate, log concentration 0.137354 (1.372 nM)
[16] = HEPG2 lysate, log concentration 0.61437 (4.115 nM)
[17] = HEPG2 lysate, log concentration 1.09153 (12.346 nM)
[18] = HEPG2 lysate, log concentration 1.56864 (37.037 nM)
[19] = HEPG2 lysate, log concentration 2.04576 (111.111 nM)
[20] = HEPG2 lysate, log concentration 2.52288 (333.333 nM)
[21] = HEPG2 lysate, log concentration 3 (1000 nM)
[22] = HEPG2 lysate, log concentration 3.47712 (3000 nM)
[23] = HEPG2 lysate, log concentration -0.340084 (0.457 nM)
[24] = HepG2 lysate, 0.457 nM compound
[25] = HepG2 lysate, 1.372 nM compound
[26] = HepG2 lysate, 4.115 nM compound
[27] = HepG2 lysate, 12.346 nM compound
[28] = HepG2 lysate, 37.037 nM compound
[29] = HepG2 lysate, 111.111 nM compound
[30] = HepG2 lysate, 333.333 nM compound

T1 sequence (P46598 whole entry): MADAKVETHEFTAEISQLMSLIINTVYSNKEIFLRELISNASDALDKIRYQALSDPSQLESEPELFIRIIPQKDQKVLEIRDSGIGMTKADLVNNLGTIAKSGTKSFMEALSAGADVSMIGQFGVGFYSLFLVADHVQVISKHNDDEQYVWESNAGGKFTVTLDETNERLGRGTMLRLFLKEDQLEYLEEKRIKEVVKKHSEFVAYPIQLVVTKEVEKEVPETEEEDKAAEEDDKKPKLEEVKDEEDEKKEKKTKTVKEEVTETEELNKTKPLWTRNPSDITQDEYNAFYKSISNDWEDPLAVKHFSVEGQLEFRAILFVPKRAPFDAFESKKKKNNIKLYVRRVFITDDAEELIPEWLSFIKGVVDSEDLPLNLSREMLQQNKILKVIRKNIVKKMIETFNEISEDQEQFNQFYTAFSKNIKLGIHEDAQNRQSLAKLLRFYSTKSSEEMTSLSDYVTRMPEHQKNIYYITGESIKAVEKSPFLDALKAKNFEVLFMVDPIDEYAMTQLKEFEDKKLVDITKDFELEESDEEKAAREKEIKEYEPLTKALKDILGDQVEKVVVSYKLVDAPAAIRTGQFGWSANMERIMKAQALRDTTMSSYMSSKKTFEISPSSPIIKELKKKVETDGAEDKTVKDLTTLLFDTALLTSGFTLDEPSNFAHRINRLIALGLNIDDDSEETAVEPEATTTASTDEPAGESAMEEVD

COc1ccc(CON=C2C=CC=CC3OC3CC(C)OC(=O)c3c(O)cc(O)c(Cl)c3C2)cc1 (mixture of isomers) [compound 224]
Ratio re. GdA ([1]; SC5314 lysate): 79.2475 | FP signal (raw) ([1]; SC5314 lysate, 0.457 nM): 204 | FP signal relative to 0 nM [1, 2]: 1.02 | FP signal [1, 2]: 204 | FP signal (raw) ([1]; SC5314 lysate, 1.372 nM): 206 | FP signal relative to 0 nM [1, 3]: 1.03 | FP signal [1, 3]: 206 | FP signal (raw) ([1]; SC5314 lysate, 4.115 nM): 205 | FP signal relative to 0 nM [1, 4]: 1.025 | FP signal [1, 4]: 205 | FP signal (raw) ([1]; SC5314 lysate, 12.346 nM): 200 | FP signal relative to 0 nM [1, 5]: 1 | FP signal [1, 5]: 200 | FP signal (raw) ([1]; SC5314 lysate, 37.037 nM): 198 | FP signal relative to 0 nM [1, 6]: 0.99 | FP signal [1, 6]: 198 | FP signal (raw) ([1]; SC5314 lysate, 111.111 nM): 193 | FP signal relative to 0 nM [1, 7]: 0.965 | FP signal [1, 7]: 193 | FP signal (raw) ([1]; SC5314 lysate, 333.333 nM): 171 | FP signal relative to 0 nM [1, 8]: 0.855 | FP signal [1, 8]: 171 | FP signal (raw) ([1]; SC5314 lysate, 1000 nM): 116 | FP signal relative to 0 nM [1, 9]: 0.58 | FP signal [1, 9]: 116 | FP signal (raw) ([1]; SC5314 lysate, 3000 nM): 52 | FP signal relative to 0 nM [1, 10]: 0.26 | FP signal [1, 10]: 52 | HepG2/SC5314 [1, 11]: 1.707 | HepG2/SC5314 [1, 12]: 1.707 | Ratio rel. GdA (HepG2) (Hsp90 in HEPG2 lysate; [13]): 135.257 | Ratio rel. GdA (HepG2) (Hsp90 in HEPG2 lysate; [14]): 135.257 | FP signal, Fxn Control (Hsp90 in HEPG2 lysate; [15]): 1.005 | FP signal, Fxn Control (Hsp90 in HEPG2 lysate; [16]): 0.9952 | FP signal, Fxn Control (Hsp90 in HEPG2 lysate; [17]): 1.01 | FP signal, Fxn Control (Hsp90 in HEPG2 lysate; [18]): 1.014 | FP signal, Fxn Control (Hsp90 in HEPG2 lysate; [19]): 1.005 | FP signal, Fxn Control (Hsp90 in HEPG2 lysate; [20]): 0.9952 | FP signal, Fxn Control (Hsp90 in HEPG2 lysate; [21]): 0.8702 | FP signal, Fxn Control (Hsp90 in HEPG2 lysate; [22]): 0.5048 | FP signal, Fxn Control (Hsp90 in HEPG2 lysate; [23]): 0.9904 | FP signal (raw) (Hsp90 in HEPG2 lysate; HepG2 lysate, 0.457 nM): 206 | FP signal (Hsp90 in HEPG2 lysate; [24]): 206 | FP signal (raw) (Hsp90 in HEPG2 lysate; HepG2 lysate, 1.372 nM): 209 | FP signal (Hsp90 in HEPG2 lysate; [25]): 209 | FP signal (raw) (Hsp90 in HEPG2 lysate; HepG2 lysate, 4.115 nM): 207 | FP signal (Hsp90 in HEPG2 lysate; [26]): 207 | FP signal (raw) (Hsp90 in HEPG2 lysate; HepG2 lysate, 12.346 nM): 210 | FP signal (Hsp90 in HEPG2 lysate; [27]): 210 | FP signal (raw) (Hsp90 in HEPG2 lysate; HepG2 lysate, 37.037 nM): 211 | FP signal (Hsp90 in HEPG2 lysate; [28]): 211 | FP signal (raw) (Hsp90 in HEPG2 lysate; HepG2 lysate, 111.111 nM): 209 | FP signal (Hsp90 in HEPG2 lysate; [29]): 209 | FP signal (raw) (Hsp90 in HEPG2 lysate; HepG2 lysate, 333.333 nM): 207 | FP signal (Hsp90 in HEPG2 lysate; [30]): 207 | FP signal (raw) (Hsp90 in HEPG2 lysate; HepG2 lysate, 1000 nM): 181 | FP signal (Hsp90 in HEPG2 lysate; HepG2 lysate, 1000 nM compound): 181 | FP signal (raw) (Hsp90 in HEPG2 lysate; HepG2 lysate, 3000 nM): 105 | FP signal (Hsp90 in HEPG2 lysate; HepG2 lysate, 3000 nM compound): 105

COc1ccccc1CON=C1C=CC=CC2OC2CC(C)OC(=O)c2c(O)cc(O)c(Cl)c2C1 (mixture of isomers) [compound 226]
Ratio re. GdA ([1]; SC5314 lysate): 24.5326 | FP signal (raw) ([1]; SC5314 lysate, 0.457 nM): 193 | FP signal relative to 0 nM [1, 2]: 0.9461 | FP signal [1, 2]: 193 | FP signal (raw) ([1]; SC5314 lysate, 1.372 nM): 197 | FP signal relative to 0 nM [1, 3]: 0.9657 | FP signal [1, 3]: 197 | FP signal (raw) ([1]; SC5314 lysate, 4.115 nM): 190 | FP signal relative to 0 nM [1, 4]: 0.9314 | FP signal [1, 4]: 190 | FP signal (raw) ([1]; SC5314 lysate, 12.346 nM): 193 | FP signal relative to 0 nM [1, 5]: 0.9461 | FP signal [1, 5]: 193 | FP signal (raw) ([1]; SC5314 lysate, 37.037 nM): 190 | FP signal relative to 0 nM [1, 6]: 0.9314 | FP signal [1, 6]: 190 | FP signal (raw) ([1]; SC5314 lysate, 111.111 nM): 176 | FP signal relative to 0 nM [1, 7]: 0.8627 | FP signal [1, 7]: 176 | FP signal (raw) ([1]; SC5314 lysate, 333.333 nM): 131 | FP signal relative to 0 nM [1, 8]: 0.6422 | FP signal [1, 8]: 131 | FP signal (raw) ([1]; SC5314 lysate, 1000 nM): 57 | FP signal relative to 0 nM [1, 9]: 0.2794 | FP signal [1, 9]: 57 | FP signal (raw) ([1]; SC5314 lysate, 3000 nM): 38 | FP signal relative to 0 nM [1, 10]: 0.1863 | FP signal [1, 10]: 38 | EC50 ([1]; SC5314 lysate, not normalized, oxime panel experiment 220817, read-out: EC50): 417 nM | HepG2/SC5314 [1, 11]: 1.34 | HepG2/SC5314 [1, 12]: 1.34 | Ratio rel. GdA (HepG2) (Hsp90 in HEPG2 lysate; [13]): 32.872 | Ratio rel. GdA (HepG2) (Hsp90 in HEPG2 lysate; [14]): 32.872 | FP signal, Fxn Control (Hsp90 in HEPG2 lysate; [15]): 0.9856 | FP signal, Fxn Control (Hsp90 in HEPG2 lysate; [16]): 0.9952 | FP signal, Fxn Control (Hsp90 in HEPG2 lysate; [17]): 0.9952 | FP signal, Fxn Control (Hsp90 in HEPG2 lysate; [18]): 0.9809 | FP signal, Fxn Control (Hsp90 in HEPG2 lysate; [19]): 0.9426 | FP signal, Fxn Control (Hsp90 in HEPG2 lysate; [20]): 0.8517 | FP signal, Fxn Control (Hsp90 in HEPG2 lysate; [21]): 0.445 | FP signal, Fxn Control (Hsp90 in HEPG2 lysate; [22]): 0.2105 | FP signal, Fxn Control (Hsp90 in HEPG2 lysate; [23]): 0.9713 | FP signal (raw) (Hsp90 in HEPG2 lysate; HepG2 lysate, 0.457 nM): 203 | FP signal (Hsp90 in HEPG2 lysate; [24]): 203 | FP signal (raw) (Hsp90 in HEPG2 lysate; HepG2 lysate, 1.372 nM): 206 | FP signal (Hsp90 in HEPG2 lysate; [25]): 206 | FP signal (raw) (Hsp90 in HEPG2 lysate; HepG2 lysate, 4.115 nM): 208 | FP signal (Hsp90 in HEPG2 lysate; [26]): 208 | FP signal (raw) (Hsp90 in HEPG2 lysate; HepG2 lysate, 12.346 nM): 208 | FP signal (Hsp90 in HEPG2 lysate; [27]): 208 | FP signal (raw) (Hsp90 in HEPG2 lysate; HepG2 lysate, 37.037 nM): 205 | FP signal (Hsp90 in HEPG2 lysate; [28]): 205 | FP signal (raw) (Hsp90 in HEPG2 lysate; HepG2 lysate, 111.111 nM): 197 | FP signal (Hsp90 in HEPG2 lysate; [29]): 197 | FP signal (raw) (Hsp90 in HEPG2 lysate; HepG2 lysate, 333.333 nM): 178 | FP signal (Hsp90 in HEPG2 lysate; [30]): 178 | FP signal (raw) (Hsp90 in HEPG2 lysate; HepG2 lysate, 1000 nM): 93 | FP signal (Hsp90 in HEPG2 lysate; HepG2 lysate, 1000 nM compound): 93 | FP signal (raw) (Hsp90 in HEPG2 lysate; HepG2 lysate, 3000 nM): 44 | FP signal (Hsp90 in HEPG2 lysate; HepG2 lysate, 3000 nM compound): 44 | EC50 (Hsp90 in HEPG2 lysate; HepG2 lysate, oxime panel experiment 220817): 729 nM
